Data from US7205382B2, “Peptides, the production and use thereof for binding immunoglobulins” (Fresenius Medical Care Affina GmbH, priority 2000, dated 2007).
Bridge positions count the residues as written; N and C are the ends. Square brackets hold non-standard residues; d marks the D form. Ends that are not written are not given here. cellulose = not defined here; βAla = NCCC(=O)O

Columns and labels:
Type in all cases: binding
Set-up in all cases: key: No binding of immunoglobulin for the defined peptide variant, detection negative: 0; Binding of immunoglobulin for the defined peptide variant, detection positive: +
human IgG-Fc = assay: Cellulose-immobilized 13-mer peptide variants incubated with human IgG-Fc, anti-human IgG-AP detection; details: IgG-Fc 1 μg/ml in blocking buffer, 3 h room temperature
Procedure, shortened: (§1)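 Spot membrane, (βA)(βA) spacer; T-TBS pH 8.0 wash, block 5% saccharose/4% BSA. 3 h RT with IgG-Fc 1 μg/ml, serum 1:10,000, or block buffer only (specificity control). 3× wash, AP-anti-human IgG 1.2 μg/ml, NBT/BCIP in pH 9.5 buffer.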

[1] = test system: immunoglobulins in human plasma; assay: Cellulose-immobilized 13-mer peptide variants incubated with human plasma, anti-human IgG-AP detection; details: human plasma as sample, diluted 1:10,000 in blocking buffer, 3 h room temperature
Procedure, shortened: as §1

serum albumin = assay: Cellulose-immobilized 13-mer peptide variants incubated with serum albumin (negative control), anti-human IgG-AP detection; details: blocking buffer without addition, 3 h room temperature
Procedure, shortened: as §1

Result for incubation with human IgG-Fc (immunoglobulin binding detection) (human IgG-Fc) | Result for incubation with human plasma (immunoglobulin binding detection) [1] | Result for incubation with serum albumin (immunoglobulin binding detection) (serum albumin) | Substance
0 | 0 | 0 | 11V: cellulose-bound 13-mer variant DCAWHLGELVVCT-(βA)(βA)
0 | 0 | 0 | 05C: cellulose-bound 13-mer variant DCAWCLGELVWCT-(βA)(βA) (not fully specified (N-terminus, C-terminus, bridges); printed as DCAWCLGELVWCT-(βA)(βA); cysteine pairing not given here; also: cellulose-bound)
+ | + | 0 | 04T: cellulose-bound 13-mer variant DCATHLGELVWCT-(βA)(βA) (disulfide 2-12 (inferred); not fully specified (N-terminus, C-terminus); printed as DCATHLGELVWCT-(βA)(βA); also: cellulose-bound)
0 | 0 | 0 | 05P: cellulose-bound 13-mer variant DCAWPLGELVWCT-(βA)(βA) (disulfide 2-12 (inferred); not fully specified (N-terminus, C-terminus); printed as DCAWPLGELVWCT-(βA)(βA); also: cellulose-bound)
0 | 0 | 0 | 11A: cellulose-bound 13-mer variant DCAWHLGELVACT-(βA)(βA) (DCAWHLGELVACT-{βAla-βAla-cellulose}; disulfide 2-12 (inferred); reading uncertain; also: printed as DCAWHLGELVACT-(βA)(βA))
0 | 0 | 0 | 02Y: cellulose-bound 13-mer variant DYAWHLGELVWCT-(βA)(βA) (DYAWHLGELVWCT[βAla][βAla]; not fully specified; printed as DYAWHLGELVWCT-(βA)(βA); also: cellulose-bound)
+ | + | 0 | 06N: cellulose-bound 13-mer variant DCAWHNGELVWCT-(βA)(βA) (DCAWHNGELVWCT-{βAla-βAla-cellulose}; disulfide 2-12 (inferred); not fully specified (N-terminus); printed as DCAWHNGELVWCT-(βA)(βA); reading uncertain)
0 | 0 | 0 | 08V: cellulose-bound 13-mer variant DCAWHLGVLVWCT-(βA)(βA) (DCAWHLGVLVWCT-{βAla-βAla-cellulose}; disulfide 2-12 (inferred); reading uncertain; also: printed as DCAWHLGVLVWCT-(βA)(βA))
+ | 0 | 0 | 08A: cellulose-bound 13-mer variant DCAWHLGALVWCT-(βA)(βA) (DCAWHLGALVWCT-{βAla-βAla-cellulose}; disulfide 2-12 (inferred); not fully specified (N-terminus); printed as DCAWHLGALVWCT-(βA)(βA); reading uncertain)
+ | 0 | 0 | 03E: cellulose-bound 13-mer variant DCEWHLGELVWCT-(βA)(βA) (DCEWHLGELVWCT-{βAla-βAla-cellulose}; disulfide 2-12 (inferred); reading uncertain; also: printed as DCEWHLGELVWCT-(βA)(βA))
0 | 0 | 0 | 11N: cellulose-bound 13-mer variant DCAWHLGELVNCT-(βA)(βA)

More lines, now with the values behind:

Substance | Result for incubation with human IgG-Fc (immunoglobulin binding detection) (human IgG-Fc) | Result for incubation with human plasma (immunoglobulin binding detection) [1] | Result for incubation with serum albumin (immunoglobulin binding detection) (serum albumin)
04K: cellulose-bound 13-mer variant DCAKHLGELVWCT-(βA)(βA) (DCAKHLGELVWCT[βAla][βAla]; disulfide 2-12 (inferred); also: cellulose-bound) | + | + | 0
06S: cellulose-bound 13-mer variant DCAWHSGELVWCT-(βA)(βA) (DCAWHSGELVWCT-{βAla-βAla-cellulose}; disulfide 2-12 (inferred); not fully specified (N-terminus); printed as DCAWHSGELVWCT-(βA)(βA); reading uncertain) | + | 0 | 0
01D: starting 13-mer DCAWHLGELVWCT-(βA)(βA), R1=amino, cellulose-bound | + | + | 0
01W: cellulose-bound 13-mer variant WCAWHLGELVWCT-(βA)(βA) (WCAWHLGELVWCT-{βAla-βAla-cellulose}; disulfide 2-12 (inferred); reading uncertain; also: printed as WCAWHLGELVWCT-(βA)(βA)) | 0 | 0 | 0
09F: cellulose-bound 13-mer variant DCAWHLGEFVWCT-(βA)(βA) (DCAWHLGEFVWCT-{βAla-βAla-cellulose}; disulfide 2-12 (inferred); reading uncertain; also: printed as DCAWHLGEFVWCT-(βA)(βA)) | 0 | 0 | 0
11S: cellulose-bound 13-mer variant DCAWHLGELVSCT-(βA)(βA) | 0 | 0 | 0
11D: cellulose-bound 13-mer variant DCAWHLGELVDCT-(βA)(βA) (DCAWHLGELVDCT-{βAla-βAla-cellulose}; disulfide 2-12 (inferred); reading uncertain; also: printed as DCAWHLGELVDCT-(βA)(βA)) | 0 | 0 | 0
10M: cellulose-bound 13-mer variant DCAWHLGELMWCT-(βA)(βA) (DCAWHLGELMWCT-{βAla-βAla-cellulose}; disulfide 2-12 (inferred); reading uncertain; also: printed as DCAWHLGELMWCT-(βA)(βA)) | 0 | 0 | 0
07F: cellulose-bound 13-mer variant DCAWHLFELVWCT-(βA)(βA) (DCAWHLFELVWCT-{βAla-βAla-cellulose}; disulfide 2-12 (inferred); not fully specified (N-terminus); printed as DCAWHLFELVWCT-(βA)(βA); reading uncertain) | 0 | 0 | 0
05L: cellulose-bound 13-mer variant DCAWLLGELVWCT-(βA)(βA) (disulfide 2-12 (inferred); not fully specified (N-terminus, C-terminus); printed as DCAWLLGELVWCT-(βA)(βA); also: cellulose-bound) | 0 | 0 | 0
04I: cellulose-bound 13-mer variant DCAIHLGELVWCT-(βA)(βA) (DCAIHLGELVWCT[βAla][βAla]; disulfide 2-12 (inferred); also: cellulose-bound) | + | 0 | 0
05I: cellulose-bound 13-mer variant DCAWILGELVWCT-(βA)(βA) (disulfide 2-12 (inferred); not fully specified (N-terminus, C-terminus); printed as DCAWILGELVWCT-(βA)(βA); also: cellulose-bound) | 0 | 0 | 0
